Test results published in PubChem BioAssay AID2060501 (Molecular Pharmacology Branch, DTP, NCI, 2025).

Tested on: 282377-053-R-J1-PDC complex spheroids, viability
Assay: Anticancer human tumor 282377-053-R-J1-PDC patient-derived colon adenocarcinoma cell line growth inhibition [GQUAD]
Details: for IC50: curve of first compound; for viability, T/C: stronger effect = lower value; active = viability on the fitted dose curve at most 10% of control; inactive = the rest
How it was run: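 Tumor cells were grown as complex spheroids with HUVEC endothelial cells and mesenchymal stem cells as stroma. G-quadruplex stabilizers were combined with targeted agents over half-log dilutions from near the clinical Cmax, or from 10 microM.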

[1] = second compound 0.0316 µM, first compound 0.0316 µM
[2] = second compound 0.0316 µM, first compound 0.1 µM
[3] = second compound 0.0316 µM, first compound 0.316 µM
[4] = second compound 0.0316 µM, first compound 1 µM
[5] = second compound 0.0316 µM, first compound 3.16 µM
[6] = second compound 0.0316 µM, first compound 10 µM
[7] = second compound 0.1 µM, first compound 0.0316 µM
[8] = second compound 0.1 µM, first compound 0.1 µM
[9] = second compound 0.1 µM, first compound 0.316 µM
[10] = second compound 0.1 µM, first compound 1 µM
[11] = second compound 0.1 µM, first compound 3.16 µM
[12] = second compound 0.1 µM, first compound 10 µM
[13] = second compound 0.316 µM, first compound 0.0316 µM
[14] = second compound 0.316 µM, first compound 0.1 µM
[15] = second compound 0.316 µM, first compound 0.316 µM
[16] = second compound 0.316 µM, first compound 1 µM
[17] = second compound 0.316 µM, first compound 3.16 µM
[18] = second compound 0.316 µM, first compound 10 µM
[19] = second compound 1 µM, first compound 0.0316 µM
[20] = second compound 1 µM, first compound 0.1 µM
[21] = second compound 1 µM, first compound 0.316 µM
[22] = second compound 1 µM, first compound 1 µM
[23] = second compound 1 µM, first compound 3.16 µM
[24] = second compound 1 µM, first compound 10 µM
[25] = second compound 3.16 µM, first compound 0.0316 µM
[26] = second compound 3.16 µM, first compound 0.1 µM
[27] = second compound 3.16 µM, first compound 0.316 µM
[28] = second compound 3.16 µM, first compound 1 µM
[29] = second compound 3.16 µM, first compound 3.16 µM
[30] = second compound 3.16 µM, first compound 10 µM
[31] = second compound 10 µM, first compound 0.0316 µM
[32] = second compound 10 µM, first compound 0.1 µM
[33] = second compound 10 µM, first compound 0.316 µM
[34] = second compound 10 µM, first compound 1 µM
[35] = second compound 10 µM, first compound 3.16 µM
[36] = second compound 10 µM, first compound 10 µM
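Note: spheroids exposed to compounds for 7 days before readout.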
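Throughout, for viability, T/C: percent of vehicle DMSO control viability with 100% = untreated-like growth.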

CC1COCCN1c1cc(-c2ccnn2C)c2ccnc(-c3ccn[nH]3)c2n1 (centres undefined) + CN(C)c1ccc(Nc2c3ccc(NC(=O)CCN4CCCC4)cc3nc3cc(NC(=O)CCN4CCCC4)ccc23)cc1
inactive: viability, T/C [1] 86.5% | viability, T/C [2] 88% | viability, T/C [3] 61.9% | viability, T/C [4] 40.6% | viability, T/C [5] 34.6% | viability, T/C [6] 26.5% | viability, T/C [7] 91% | viability, T/C [8] 75.7% | viability, T/C [9] 67.1% | viability, T/C [10] 41.7% | viability, T/C [11] 32.8% | viability, T/C [12] 24.8% | viability, T/C [13] 82% | viability, T/C [14] 65.4% | viability, T/C [15] 56.8% | viability, T/C [16] 38.3% | viability, T/C [17] 38.5% | viability, T/C [18] 26.4% | viability, T/C [19] 79.1% | viability, T/C [20] 101% | viability, T/C [21] 67.3% | viability, T/C [22] 36.7% | viability, T/C [23] 32.6% | viability, T/C [24] 27.8% | viability, T/C [25] 84.5% | viability, T/C [26] 74% | viability, T/C [27] 67.4% | viability, T/C [28] 48.6% | viability, T/C [29] 38.6% | viability, T/C [30] 26.7% | viability, T/C [31] 85.1% | viability, T/C [32] 75.4% | viability, T/C [33] 64.1% | viability, T/C [34] 42.7% | viability, T/C [35] 38.6% | viability, T/C [36] 29%
745 nM: IC50 (second compound 10 µM)
1080 nM: IC50 (second compound 3.16 µM)
612 nM: IC50 (second compound 0.0316 µM)
717 nM: IC50 (second compound 0.1 µM)
559 nM: IC50 (second compound 1 µM)
480 nM: IC50 (second compound 0.316 µM)

COc1ccc([C@@H](O)c2cc(-c3ncnc4cc(N5CCOCC5)ccc34)c(F)cc2Cl)nn1 + CN(C)c1ccc(Nc2c3ccc(NC(=O)CCN4CCCC4)cc3nc3cc(NC(=O)CCN4CCCC4)ccc23)cc1
inactive: viability, T/C [1] 96.4% | viability, T/C [2] 92.5% | viability, T/C [3] 80.6% | viability, T/C [4] 71.3% | viability, T/C [5] 81.7% | viability, T/C [6] 64.9% | viability, T/C [7] 89.2% | viability, T/C [8] 75.3% | viability, T/C [9] 95% | viability, T/C [10] 72.8% | viability, T/C [11] 86.2% | viability, T/C [12] 60.1% | viability, T/C [13] 89.1% | viability, T/C [14] 81% | viability, T/C [15] 76.4% | viability, T/C [16] 78.2% | viability, T/C [17] 82.1% | viability, T/C [18] 48.3% | viability, T/C [19] 81.2% | viability, T/C [20] 83.2% | viability, T/C [21] 97.6% | viability, T/C [22] 62.4% | viability, T/C [23] 77.4% | viability, T/C [24] 66.6% | viability, T/C [25] 87.3% | viability, T/C [26] 83.8% | viability, T/C [27] 81.2% | viability, T/C [28] 85% | viability, T/C [29] 102% | viability, T/C [30] 61.3% | viability, T/C [31] 89.3% | viability, T/C [32] 72.6% | viability, T/C [33] 90.1% | viability, T/C [34] 74.5% | viability, T/C [35] 76.4% | viability, T/C [36] 79.4%
> 10000 nM: IC50 (second compound 0.0316 µM) | IC50 (second compound 0.1 µM) | IC50 (second compound 1 µM) | IC50 (second compound 3.16 µM) | IC50 (second compound 10 µM)
9440 nM: IC50 (second compound 0.316 µM)
